# Results: patent US20070253961A1, “Pharmaceutical Composition Comprising the Anti-4-1Bb Antibody for Treating or Preventing Rheumatoid Arthritis” (ULSAN INDUSTRIAL EDUCATION FOUNDATION, priority 2003, published 2007)
# System: CIA
# Test: 1-MT (IDO inhibition) reversal of 4-1BB-mediated suppression of CIA
# Format: in vivo, mice
# Experimental: Each mouse was injected with 200[…] of purified anti-4-1BB (3H3, rat IgG1), anti-4-1BBL (TKS-1, rat IgG1), or control rat IgG i.p. on PI days 0, 2, 4, 6, and 8. We tested the dose response of the antibodies in vivo by measuring serum IFN-γ levels for anti-4-1BB and suppression of the recall response for anti-4-1BBL. […] To treat established CIA, the mice were injected on PI days 28, 30, 32, 34, and 36. To block IFN-γ mice were injected i.p. every 4 days with 500[…] of purified R4-6A2 on PI days 0, 4, 8, and 12. Rat IgG again served as a control.
# To inhibit IDO activity, slow-release polymer pellets impregnated with 1-MT (10 mg/day release rate) or placebo pellets (Innovative Research of America, Sarasota, Fla.) were implanted under the dorsal skin 1 day before the immunization. […] Because of the large size of these pellets relative to the small size of the mice, additional experiments were conducted with the implantation of two smaller pellets (10 mg/day release rate) per mouse, each containing 120 mg 1-MT, for a dose of 20 mg/day for 12 days. On day 13, two more pellets were implanted, for a total dosage period of 24 days.
structure (smiles),measurement,setting,value
"Cn1cc(CC(N)C(=O)O)c2ccccc21 (racemic) [1-MT, 1-methyl D,L-tryptophan]",reversal of suppressive effect of anti-4-1BB on CIA,"5 mg/day 1-MT, with anti-4-1BB",incomplete
same,suppressive effect of anti-4-1BB on CIA,"20 mg/day dose of 1-MT, slow-release pellets, with anti-4-1BB",completely reversed
same,time of appearance of CIA after 1-MT reversal,"1-MT with anti-4-1BB, 'in these experiments'",at the same time as in the control mice
same,day disease became evident,"1-MT-treated mice with 3H3, control mice first showed signs on PI day 30",48 PI day
